Test results from ChEMBL document CHEMBL1156990, “[(11)C]Dimebon, radiosynthesis and lipophilicity of a new potential PET agent for imaging of Alzheimer's disease and Huntington's disease” (Bioorg Med Chem Lett, 2010).

Experiment: Octanol-water partition coefficient, log P by reverse phase HPLC method
Assay type: physicochemical

SMILES	logP
Cc1ccc2c(c1)c1c(n2CCc2ccc(C)nc2)CCN([11CH3])C1	2.53
CC(=O)N(Cc1ccccc1O[11CH3])c1cnccc1Oc1ccccc1	2.21
